Assay results from patent US10400004B2, “Chemical synthesis method of phillyrin” (priority 2014, dated 2019).
Like-named read-outs stand apart in the source and are kept apart here. Marks after values point to notes of the source that are not given here.

How the values were obtained:
[1] = system: Vero cells; assay: Drug cytotoxicity assay (MTT) on Vero cells; type: cell-based, African green monkey; settings: 72 h, Probit regression
Protocol: Vero cells were subcultured for 1-2 days to form a film. […] The digestion was drained after needle-like holes occurred on the cell surface, then cells were dispersed with a few milliliters of medium, counted, then diluted to about 5×10^7 cells/L with DMEM containing 10% fetal bovine serum and transferred to a 96-pore culture plate until monolayer formed.
Cytotoxicity test: the drugs were diluted according to the concentrations shown in Table 1-1 for cytotoxicity assays.
Different concentrations of drugs diluted with the above maintenance medium (DMEM containing 2% fetal calf serum) were added dropwise to Vero monolayer cells with 0.2 ml per pore, and for each concentration, the drugs were added in sextuplicate in 6 pores respectively. In addition, 6 pores were set up as normal control (without drugs) while another 6 pores as blank control (medium only). Cells were grown in a 37° C. incubator under 5% CO2. CPE was visualized under the invert microscope and recorded daily. After 72 h, 20 μL MTT solution (5 mg·mL^−1) was added into each pore and incubated for 4 h. The culture medium in each pore was sucked and discarded, 100 μL DMSO was added to each pore. Then the culture was shaken for 5 min, measured OD value at 492 nm to calculate the cell survival ratio. The cell survival ratio was analyzed using a Probit regression model in SPSS 18.0 statistical software, and the maximal nontoxic concentration (TC0) and median toxic concentration (TC50) of drugs against Vero cells were calculated.

[2] = system: Influenza virus; assay: Impact of the drugs on virus-induced cytopathy (MTT, ER %); type: cell-based
[3] = system: Parainfluenza virus; assay: as above; type: cell-based
[4] = system: Coxsackie virus A16 (CoxA16); assay: as above; type: cell-based
[5] = system: respiratory syncytical virus (RSV); assay: as above; type: cell-based
[6] = system: Herpes simplex virus type I (HSV-1); assay: as above; type: cell-based
[7] = system: Adenovirus (AdV); assay: as above; type: cell-based
[8] = system: enterovirus EV71; assay: as above; type: cell-based
[9] = system: Coxsackie virus B3 (CVB3); assay: as above; type: cell-based
[10] = system: influenza virus; type: in vivo, Kunming mice
[11] = system: parainfluenza virus; type: in vivo, Kunming mice
[12] = Solubility of the synthesized white solid; type: physicochemical; settings: white solid of Embodiment 1
[13] = mice, influenza virus 15LD50 nasally, 19.5 mg/kg/d intragastric, 5 days
[14] = mice, parainfluenza virus 15LD50 nasally, 19.5 mg/kg/d intragastric, 5 days
[15] = summary of Table 1-3, Vero cells
[16] = mice, parainfluenza virus 15LD50 nasally, 3.25 mg/kg/d (low-dose) intragastric, 5 days

CCOC(=O)C1=C[C@@H](OC(CC)CC)[C@H](NC(C)=O)[C@@H](N)C1 [Oseltamivir phosphate, reference compound]
Maximal non-cytotoxic concentration (TC0) [1]: 0.28 g/L | Median toxic concentration (TC50) [1]: 832 mg/L | antiviral efficiency (ER %) ([2]; Vero cells, 100 TCID50, 72 h, MTT, drug at maximal non-cytotoxic concentration or so (Table 1-2 last row: phillyrin 0.01, ribavirin 0.70, oseltamivir phosphate 0.30 g/L)): 81.76** % | antiviral efficiency (ER %) [3]: 94.52** % | antiviral efficiency (ER %) [4]: 2.95% | antiviral efficiency (ER %) [5]: 37.60% | antiviral efficiency (ER %) [6]: 66.56** % | antiviral efficiency (ER %) [7]: 10.31% | antiviral efficiency (ER %) [8]: 51.86% | antiviral efficiency (ER %) [9]: 1.64% | Lung index (X ± S) [10, 13]: 1.191 ± 0.062 | Lung index Inhibitory rate (%) [10, 13]: 20.71% | Lung index (X ± S) [11, 14]: 1.256 ± 0.057 | Lung index Inhibitory rate (%) [11, 14]: 21.56%

phillyrin
Maximal non-cytotoxic concentration (TC0) [1]: 0.006 g/L | Median toxic concentration (TC50) [1]: 550 mg/L | antiviral efficiency (ER %) [2]: 75.38** % | inhibitory effect (in words) [2, 15]: significant | antiviral efficiency (ER %) [3]: 84.96** % | inhibitory effect (in words) [3, 15]: significant | antiviral efficiency (ER %) [4]: 75.08** % | inhibitory effect (in words) [4, 15]: significant | antiviral efficiency (ER %) [5]: 80.40** % | inhibitory effect (in words) [5, 15]: significant | antiviral efficiency (ER %) [6]: 85.00** % | inhibitory effect (in words) [6, 15]: significant | antiviral efficiency (ER %) [7]: 75.14** % | inhibitory effect (in words) [7, 15]: significant | antiviral efficiency (ER %) [8]: 84.85** % | inhibitory effect (in words) [8, 15]: significant | antiviral efficiency (ER %) [9]: 75.27** % | inhibitory effect (in words) [9, 15]: significant | effect on mice viral pneumonia (in words) ([10]; influenza virus, 3.25 to 13.0 mg/kg/d): significant inhibitory effect | hemagglutination titers (in words) ([10]; influenza virus, 3.25 to 13.0 mg/kg/d, compared to virus control group): greatly reduce | Lung index (X ± S) ([10]; mouse, in vivo, 3.25 mg/kg/day): 1.339 ± 0.045 | Lung index Inhibitory rate (%) ([10]; mouse, in vivo, 3.25 mg/kg/day): 10.82% | Lung index (X ± S) ([10]; mouse, in vivo, 13 mg/kg/day): 1.290 ± 0.041 | Lung index Inhibitory rate (%) ([10]; mouse, in vivo, 13 mg/kg/day): 14.51% | Lung index (X ± S) [11, 16]: 1.360 ± 0.052 | Lung index Inhibitory rate (%) [11, 16]: 15.03% | Lung index (X ± S) ([11]; mouse, in vivo, 13 mg/kg/day): 1.2297 ± 0.071 | Lung index Inhibitory rate (%) ([11]; mouse, in vivo, 13 mg/kg/day): 19.01% | effect on mice viral pneumonia (in words) ([11]; parainfluenza virus, 3.25 to 13.0 mg/kg/d): significant inhibitory effect | hemagglutination titers (in words) ([11]; parainfluenza virus, 3.25 to 13.0 mg/kg/d, compared to virus control group): greatly reduce | solubility (in words) [12]: soluble in chloroform and methanol
